Values of other authors in patent US6620432B2, “Phenytoin sodium pharmaceutical compositions” (Mylan Pharmaceuticals Inc., priority 1999, dated 2003).
Structures can show the parent of a compound that is named as a salt.

Details: general statement, no test described

O=C1NC(=O)C(c2ccccc2)(c2ccccc2)N1 [phenytoin]
Solubility in water: water insoluble

O=C1NC(=O)C(c2ccccc2)(c2ccccc2)N1 [Phenytoin sodium, monosodium salt of 5,5-diphenyl hydantoinate]
Solubility in water: highly water soluble
